Source: paper PMC9495262, “In Vitro Antiparasitic Activities of Monovalent Ionophore Compounds for Human and Canine Leishmaniases” (Animals : an Open Access Journal from MDPI, 2022)
Like-named read-outs stand apart in the source and are kept apart here.

Assays:
[1] = tested on: L. infantum intracellular amastigotes; assay: Intracellular amastigote susceptibility assay in human dTHP-1 (Giemsa counting); assay type: cell-based, Leishmania infantum; conditions: for IC50: Leishmania infantum, read-out: Amastigotes IC50; for SI (Selectivity index = IC50 dTHP-1/IC50 amastigotes): ratio of cytotoxicity on dTHP-1 to activity on L. infantum amastigotes
Description: For Leishmania spp. infections, 100 μL of THP-1 cells (5 × 10^5 cells/mL) or canine macrophages (2 × 10^6 cells/mL) were plated in 16-chamber Lab-Tek culture slides (Nunc) and further treated with 0.1 µM of PMA for 72 h to achieve differentiation into macrophages. Cells were then washed with PBS and infected with stationary phase L. infantum promastigotes at a macrophage:promastigote ratio of 1:10. After 24 h, cell monolayers were extensively washed with PBS to remove non-internalized promastigotes and observed under an inverted light microscope to evaluate both the cellular size and the cellular morphology. Infected cells were then incubated in the presence of test compounds for 72 h. Infected and/or treated cells were then fixed with 100% methanol and stained with Giemsa at room temperature. The percentage of infected macrophages in treated and non-treated wells was determined by counting 200–300 macrophages/well under a light microscope. About 10 random microscopic fields/well were observed. The number of infected macrophages in the untreated control samples was considered 100% for calculating the percentage of infection in drug treated samples. IC50 values were then calculated. Data are the mean ± standard deviation of individual experiments performed in triplicate.
Next, human macrophages (dTHP-1) were infected with stationary-phase promastigotes of L. infantum at a cell:promastigote ratio of 1:10 for 24 h, and allowed to differentiate into intracellular parasite forms. After the removal of free promastigotes, the infected macrophages were incubated for 72 h in the presence of the ionophores at different concentrations. A significant reduction in the number of infected macrophages was observed after treatment with all the compounds tested. The inhibition was dose-dependent with IC50s between 1 and 2 µM (Table 3).

L. tropica promastigotes = assay: Leishmania promastigote viability assay (MTT), L. tropica; assay type: cell-based; conditions: mean ± SD of three experiments in duplicate
Description: (§1) Promastigote stages of L. infantum strain (MHOM/TN/80/IPT1) (WHO international reference strain, kindly provided by Dr. M. Gramiccia and Dr. T. Di Muccio, ISS, Roma, Italy), and clinical isolates of L. tropica (MHOM/SY/2012/ISS3130) and L. braziliensis (MHOM/PE/2006/ISS2848) (kindly provided by Dr. R. Grande, Sacco Hospital, Milan, Italy), were cultured in Schneider’s Drosophila medium (Lonza) supplemented with 2 mM L-glutamine and 10% heat-inactivated FBS (HyClone) at 24 °C.
(§2) To estimate the 50% inhibitory concentration (IC50) of compounds on both cells and Leishmania promastigotes, the MTT (3-[4,5-dimethylthiazol-2-yl]-2,5-diphenyltetrazolium bromide) assay was used with minor modifications. Briefly, monensin and nigericin were dissolved in ethanol (10 mg/mL), and salinomycin and amphotericin B in DMSO (10 mg/mL). All compounds were then diluted with medium to achieve the required concentrations (final DMSO or ethanol concentration <1%, non-toxic to the parasite or cells). The complete medium used for the antileishmanial activity assay was RPMI 1640 (EuroClone) supplemented with 10% heat-inactivated FBS (EuroClone), 20 mM HEPES, and 2 mM L -glutamine. Drugs were added to 96-well round-bottom microplates and seven serial dilutions were performed. Amphotericin B was used as the reference anti-Leishmania drug. Subsequently, 100 μL of the parasite suspension (5 × 10^6 parasites/mL) was dispensed into the plates. After 72h of incubation at 24 °C, 20 μL of MTT solution (5 mg/mL in PBS) was added into each well. After 3 h in the dark, the plates were centrifuged, the supernatants discarded, and the formazan crystals in the pellet dissolved in 100 μL of lysing buffer (20% w/v of a solution of SDS -Merck-, and 40% of N,N-dimethylformamide -Merck- in H2O).
(§3) For cell cytotoxicity experiments, 100 μL (5 × 10 ^5 cells/mL) of THP-1 cells were plated in 96-well flat-bottom microplates and treated with 0.1 µM phorbol myristate acetate (PMA, Merck, Kenilworth, NJ, USA) for 72 h to achieve differentiation into macrophages. Cells were then treated with different drug concentrations (60–0.4 µM). After 72 h, 20 μL of the MTT solution was added into each well. After 3 h in the dark, the supernatants were discarded and the formazan crystals dissolved in 100 μL of the same lysing buffer described above. The absorbance was then measured spectrophotometrically at 550 nm (reference wavelength 650 nm). The results are expressed as IC50, which is the dose of compound necessary to inhibit parasite and cell growth by 50%. The IC50 values were extrapolated from nonlinear regression analysis of the concentration–response curve using the software Gen5 1.10 provided with the Synergy 4 (BioTek, Winooski, VT, USA) reader. Data are the mean ± standard deviation of individual experiments performed in duplicate.

[2] = Cytotoxicity (MTT) on PMA-differentiated THP-1 macrophages; assay type: cell-based; conditions: human
Description: THP-1 cells (human acute monocytic leukemia cell line) were maintained in Roswell Park Memorial Institute (RPMI) 1640 medium supplemented with 10% fetal bovine serum (FBS, EuroClone), 50 µM 2-mercaptoethanol, 20 mM HEPES, and 2 mM L-glutamine, at 37 °C in 5% CO2.
as §3

[3] = tested on: all Leishmania spp. promastigotes; assay: Promastigote viability assay, all Leishmania species tested (summary statements); assay type: cell-based; conditions: read-out: IC50 against all Leishmania spp. promastigotes tested
Description: as §1
as §2, with “After 3 h in the dark, the plates were centrifuged, the supernatants discarded, and the formazan crystals in the pellet dissolved in 100 μL of lysing buffer (20% w/v of a solution of SDS -Merck-, and 40% of N,N-dimethylformamide -Merck- in H2O).” left out
For cell cytotoxicity experiments, 100 μL (5 × 10 ^5 cells/mL) of THP-1 cells were plated in 96-well flat-bottom microplates and treated with 0.1 µM phorbol myristate acetate (PMA, Merck, Kenilworth, NJ, USA) for 72 h to achieve differentiation into macrophages. […] The absorbance was then measured spectrophotometrically at 550 nm (reference wavelength 650 nm). […] The IC50 values were extrapolated from nonlinear regression analysis of the concentration–response curve using the software Gen5 1.10 provided with the Synergy 4 (BioTek, Winooski, VT, USA) reader. […]

in vitro = assay type: cell-based; conditions: human
Description: as §3
Non-infected human macrophages (PMA-differentiated THP-1, dTHP-1) and human dermal fibroblasts (HDF) were incubated in the presence of different concentrations of ionophores to determine the nontoxic concentration for mammalian cells.

[4] = tested on: L. braziliensis promastigotes; assay: Leishmania promastigote viability assay (MTT), L. braziliensis; assay type: cell-based; conditions: mean ± SD of three experiments in duplicate
Description: as §1, §2, §3

[5] = tested on: L. infantum promastigotes; assay: Leishmania promastigote viability assay (MTT), L. infantum; assay type: cell-based; conditions: mean ± SD of three experiments in duplicate
Description: as §1, §2, §3

[6] = tested on: promastigotes of L. donovani; design: method as in PMID 12864731; conditions: previous work; read-out: IC50 against promastigotes of L. donovani; cited from earlier work
[7] = tested on: L. donovani intracellular amastigotes; design: method as in PMID 21358812; conditions: read-out: IC50 against intracellular amastigotes, ex vivo splenic explant model of L. donovani infection; cited from earlier work
[8] = L. infantum-infected dTHP-1 treated for 72 h, Giemsa, percentage of infected cells
[9] = Leishmania tropica, MTT assay after 72 h of treatment, read-out: IC50 against L. tropica promastigotes
[10] = L. infantum, L. tropica and L. braziliensis promastigotes, summary statement
[11] = Leishmania braziliensis, MTT assay after 72 h of treatment, read-out: IC50 against L. braziliensis promastigotes
[12] = Leishmania infantum, MTT assay after 72 h of treatment, read-out: IC50 against L. infantum promastigotes
[13] = non-infected PMA-differentiated THP-1 macrophages (dTHP-1), non-infected PMA-differentiated THP-1, MTT assay after 72 h of treatment, read-out: CC50 dTHP-1

| Structure (SMILES) | IC50 [1, 8] [nM] | SI (Selectivity index = IC50 dTHP-1/IC50 amastigotes) [1] | IC50 (L. tropica promastigotes; [9]) [nM] | CC50 at 72 h [2] [nM] | IC50 [3, 10] [nM] | CC50 at 72 h (in vitro) [nM] | IC50 [4, 11] [nM] | IC50 [5, 12] [nM] | IC50 ([1]; 72 h) [nM] | IC50 (L. tropica promastigotes; Leishmania tropica, 72 h, read-out: IC50 against L. tropica promastigotes, MTT assay after 72 h of treatment) [nM] | IC50 (L. tropica promastigotes; read-out: IC50 against L. tropica promastigotes, MTT assay after 72 h of treatment) [nM] | IC50 [6] [nM] | CC50 at 72 h [2, 13] [nM] | IC50 [3] [nM] | IC50 ([4]; Leishmania braziliensis, 72 h, read-out: IC50 against L. braziliensis promastigotes, MTT assay after 72 h of treatment) [nM] | IC50 ([4]; read-out: IC50 against L. braziliensis promastigotes, MTT assay after 72 h of treatment) [nM] | IC50 ([5]; Leishmania infantum, 72 h, read-out: IC50 against L. infantum promastigotes, MTT assay after 72 h of treatment) [nM] | IC50 ([5]; read-out: IC50 against L. infantum promastigotes, MTT assay after 72 h of treatment) [nM] | IC50 [7] [nM] |
| --- | --- | --- | --- | --- | --- | --- | --- | --- | --- | --- | --- | --- | --- | --- | --- | --- | --- | --- | --- |
| CO[C@@H]1C[C@@H](C[C@H]2CC[C@H](C)[C@H]([C@@H](C)C(=O)O)O2)O[C@]2(O[C@](C)([C@H]3CC[C@@](C)([C@@H]4O[C@@H]([C@H]5O[C@@](O)(CO)[C@H](C)C[C@@H]5C)C[C@@H]4C)O3)C[C@H]2C)[C@@H]1C [Nigericin, nigericin] | 1790 ± 830 | >33.5 | 230 ± 50 | > 60000 | < 1000 | > 60000 | 780 ± 80 | 370 ± 40 |  |  |  |  |  |  |  |  |  |  |  |
| CC[C@@H](C(=O)[C@@H](C)[C@@H](O)[C@H](C)[C@@H]1O[C@@H]([C@@H](CC)C(=O)O)CC[C@@H]1C)[C@H]1O[C@]2(C=C[C@@H](O)[C@]3(CC[C@@](C)([C@H]4CC[C@](O)(CC)[C@H](C)O4)O3)O2)[C@H](C)C[C@@H]1C [Salinomycin, salinomycin] |  | 16.6 |  |  |  | > 60000 |  |  | 1930 ± 100 | ~5000 | 4530 ± 600 | ~1700 | 32100 ± 5300 | > 4000 | ~5000 | 5080 ± 1740 | ~8000 | 7980 ± 640 |  |
| C[C@@H]1[C@H](O)[C@@H](C)/C=C/C=C/C=C/C=C/C=C/C=C/C=C/[C@H](O[C@@H]2O[C@H](C)[C@@H](O)[C@H](N)[C@@H]2O)C[C@@H]2O[C@](O)(C[C@@H](O)C[C@@H](O)[C@H](O)CC[C@@H](O)C[C@@H](O)CC(=O)O[C@H]1C)C[C@H](O)[C@H]2C(=O)O [Amphotericin B] | 180 ± 30 | >111.1 | 100 ± 20 |  |  |  | 80 ± 20 | 120 ± 20 |  |  |  |  | > 20000 |  |  |  |  |  |  |
| CC[C@@]1([C@@H]2O[C@@H]([C@H]3O[C@@](O)(CO)[C@H](C)C[C@@H]3C)C[C@@H]2C)CC[C@H]([C@]2(C)CC[C@]3(C[C@H](O)[C@@H](C)[C@@H]([C@@H](C)[C@@H](OC)[C@H](C)C(=O)O)O3)O2)O1 [Monensin, monensin] | 1670 ± 430 | >35.9 | 350 ± 170 | > 60000 | < 1000 | > 60000 | 270 ± 130 | 630 ± 110 |  |  |  |  |  |  |  |  |  |  | 850 |
